# Patent publication US12227548B2, “Use of IRE1α-XBP1 signaling pathway biomarkers for modulating immune responses” (Dana-Farber Cancer Institute, Inc., priority 2018, dated 2025)
# Columns and labels:
# [1] = tested on: c-Myc promoter activation in Myc^GFP NK cells; experiment: c-Myc reporter (Myc^GFP) expression in splenic NK cells treated with cytokines; type: cell-based, mouse; details: FIG. 9H
# Experimental: Genes were clustered by functional annotation. […] Equal numbers of Ly49H^+ NK cells from wild type and knockout donors were co-transferred into recipient Ly49H-deficient mice 1 day before infection. […] Anti-XBP1s Ab was used and IgG was used as mock control. FIG. 9H show the representative flow cytometric plots (left) and quantification of c-Myc reporter expression. Before assessment, splenic NK cells from c-Myc reporter mice (Myc^GFP) were treated with indicated cytokines for 16 hours, either in the presence or absence of the IRE1 inhibitor (IRE1i) 4μ8c. […] Equal numbers of Ly49H^+ NK cells from wild type and Myc^NK donors were co-transferred into recipient Ly49H− deficient mice 1 day before infection. […] One sample t-test performed on FIG. 9J. Two tailed unpaired Student's t-test performed on FIG. 9D and FIG. 9G. Two-way analysis of variance (ANOVA) with the Sidak post-test performed on FIGS. 9E, and 9I. […] Each column in FIG. 9B is a different mouse. Data are representative of three (FIGS. 9C-9E and FIG. 9G) and two independent repeats (FIGS. 9F, 9H, 9I and 9J). Data were independently repeated three (FIGS. 9D and 9H) and two (FIGS. 9G-9J). N equals 3 or 4 mice/group in FIG. 9D and FIG. 9J; n equals 3 technical replicates/group in FIG. 9G; n equals 3 replicates/treatment in ex vivo culture in FIG. 9H; n equals 5 mice/group in FIG. 9I. […]
# [2] = tested on: Chop and IRE1α/XBP1 pathway in NK cells; experiment: Ex vivo incubation of splenic NK cells with tunicamycin, XBP1 splicing assay and qRT-PCR of UPR genes; type: cell-based, mouse; details: 4 hours ex vivo incubation, FIG. 3A
# Source text: The quantitative real time PCR data were presented as relative expression to β-Actin. […] BM NK cells were identified by Lin^−CD122 and splenic NK cells were identified by Lin^−NK1.1^+. Ns indicates “not significant”, * indicates p<0.05, ** indicates p<0.01, *** indicates p<0.001 and **** indicates p<0.0001. Two tailed unpaired Student's t-test performed on FIG. 3A. All error bars show standard deviation. N equals 3 mice/group in FIG. 3A and FIG. 3D. N equals 5 mice/group in FIGS. 3B-3C and FIG. 3F. N equals 10 mice in FIG. 3E. Experiments were independently repeated three (FIGS. 3A-3C and 3E-3F) and two ([…] FIG. 3D) times.
# Cells were pre-enriched (Miltenyi Biotec) and then sorted to >95% purity and RNA was isolated using the RNeasy® RNA purification mini (for 5×10^5 cells or beyond) or micro (for <5×10^5 cells) kit (Qiagen) according to the manufacturer's protocol. From purified RNA, cDNA was synthesized using the reverse-transcriptase kit gScript™ cDNA synthesis kit (Quanta Biosciences). Quantitative real time PCR (qRT-PCR) was performed in triplicates in a 384-well plate using Taqman® Probes (Themo Fisher) or SYBR® Green (Quanta Biosciences)-based detection on an ABI QuantStudio™ 6 Flex qRT-PCR machine. For experiments in FIG. 9D, CellDirect™ One-Step qRT-PCR Kit with Rox (Life Technologies) was used according to the manufacturer's instruction. […]
# [3] = tested on: primary human NK cells; experiment: Ex vivo expansion of primary human NK cells with IL-2 and IL-15, CTV dilution; type: cell-based
# Experimental: Equal numbers of NK cells from wild-type and IRE1^NK donors were labelled with cell proliferation tracing dye CTV, and then co-transferred into lymphocyte-lacking recipient Rag2-/-Il2rg-/- mice. Flow cytometric evaluation of NK cell expansion and proliferation was performed in the spleen of recipient mice at day 3-5 after transfer. […] IRE1^NK and IRE1^f/f NK cells from littermate animals were pre-labeled with CTV and cultured ex vivo with IL-2 and IL-15 for the indicated number of days. […] Two-way analysis of variance (ANOVA) with the Sidak post-test performed on FIGS. 7B and 7D. Two tailed unpaired Student's t-test performed on FIG. 7C. One-way analysis of variance (ANOVA) with the Tukey post-test performed on FIG. 7G. Two tailed paired Student's t-test performed on FIGS. 7F, 7I and 7J. All error bars show the standard deviation. Data are representative of three (FIGS. 7B and 7C) and two (FIGS. 7D-7E and 7G-7H) independent repeats. Data in FIGS. 7F, 7I and 7J are pooled from two independent repeats. N equals 2 mice/group in FIG. 7B. N equals 4 mice/group in FIGS. 7C, 7G and 7H. N equals 3 mice/group (and technical duplicates for ex vivo culture) in FIGS. 7D and 7E. N equals 6, 5 and 5 PBMC donors in FIGS. 7F, 7I and 7J. Peripheral blood mononuclear cells (PBMCs) from healthy donors (New York Blood Center) were isolated by density gradient centrifugation with Ficoll (GE Healthcare). […]
# [4] = tested on: human primary NK cells; experiment: Metabolic flux assay (oxygen consumption rate) of IL-12 and IL-18 activated human primary NK cells; type: cell-based; details: IL-12 and IL-18 for 16 hr, inhibitor 5 μM; FIG. 14C
# Experimental: Genes were clustered by functional annotation. c-Myc-regulated genes (Morrish and Hockenbery (2014) Cold Spring Harb. Perspect. Med. 4:a014225) are shown in black text on the right. […] Primary human NK cells isolated from PBMC were incubated with IL-12 and IL-18 for 16 hr, in the presence or absence of the IRE1α inhibitor 4μ8C (5 uM). Approximately 600,000 cells were plated per well, and the data were normalized to total protein quantification. Oligo (Oligomycin, 1 μM), FCCP (carbonyl cyanide-p-(trifluoromethoxy) phenylhydrazone, 1 μM), R (rotenone, 0.5 μM) and A (antimycin, 0.5 μM).
# Purified human primary NK cells from healthy PBMC donors were stimulated with human recombinant IL-12 and IL-18 for 16 hr in complete RPMI medium, in the presence or absence of IRE1 inhibitor 4μ8C (5 μM). After incubation, NK cells were collected, thoroughly washed and then subjected to Seahorse analyses using non-buffered XF base medium containing 25 mM glucose, 2 mM L-glutamine, and 1 mM sodium Pyruvate but lacking serum. […] 6×10^5 NK cells were plated and OCR measurements were analyzed on an XFe96 Extracellular Flux Analyzer (Agilent). After basal OCR measurements were obtained, an OCR trace was recorded in response to oligomycin (1 μM), carbonyl cyanide-p-(trifluoromethoxy) phenylhydrazone (FCCP, 1 μM), and rotenone and antimycin (0.5 μM each) following the XF Cell Mito Stress test kit (Agilent). […]
# [5] = tested on: mouse NK cells; experiment: Ex vivo expansion of mouse NK cells (Myc^OE and littermate control) with IL-2 and IL-15, CTV dilution; type: cell-based; details: IL-2 and IL-15 for 3 days, FIG. 15B
# Experimental: FIG. 15A-FIG. 15E show the restoration of c-Myc in the absence of IRE1 rescues the NK cell proliferation defect. […] FIG. 15C-FIG. 15E show WT (Myc^fsf/+ IRE1^f/f Ncr1^Cre−), IRE1^NK (Myc^+/+ IRE1^f/f Ncr1^Cre+) Myc^OE (Myc^fsf/+ IRE1^+/+ Ncr1^Cre+) and Myc^OE IRE1^NK (Myc^fsf/+ IRE1^f/f Ncr1^Cre+) NK cells pre-labeled with CTV and cultured ex vivo with IL-2 and IL-15. […] P values are as indicated; ns=not significant. One sample t-test is performed on FIG. 15A. One-way analysis of variance (ANOVA) with the Tukey post-test is performed on FIGS. 15C-15E. All error bars are s.e.m. N=5 mice/group in FIG. 15A, n=2 mice/group in FIG. 15B and n=4 mice/group in FIGS. 15C-15E. […] Experiments in FIGS. 15B-15E were independently repeated three times.
# For FIG. 1E, ˜2×10^5 sorted splenic NK cells were stimulated for 16 hr in complete RPMI containing 10% FBS with recombinant mouse IL-2 ([…]; BioLegend), either in the presence or absence of IL-12 (20 ng/ml; Peprotech) and IL-18 (10 ng/ml; R&D Systems). For ex vivo NK cell expansion experiments, 2.5×10^5 sorted NK cells (>97% purity) were stimulated in RPMI supplemented with 10% FBS, penicillin-streptomycin, L-glutamine and β-mercaptoethanol, and with recombinant mouse IL-2 (10 ng/ml; R&D Systems) and IL-15/15R (40 ng/ml; eBioscience) re-applied every other day. […]
compound,measurement,setting,value
IL-15: recombinant cytokine IL-15,c-Myc reporter GFP,"[1]; Myc^GFP NK cells, 16 hours, in the absence of 4μ8c",c-Myc reporter GFP was induced
tunicamycin,Chop expression,[2],strongly triggered Chop expression
same,IRE1α/XBP1 pathway,[2],upregulation of the IRE1α/XBP1 pathway
"Cc1cc(=O)oc2c(C=O)c(O)ccc12 [4μ8c, 8-formyl-7-hydroxy-4-methylcoumarin]",proliferation of CD56^bright versus CD56^dim NK cells,"[3]; IL-2 and IL-15, day 6, FIG. 7I",primarily hindered the proliferation of CD56^bright NK cells
same,proliferation of primary human NK cells,"[3]; cultured in IL-2 and IL-15, 5 μM inhibitor vs DMSO, day 6, FIG. 7F",significant reduction in proliferation
same,levels of OXPHOS (basal OCR),[4],significantly decreased levels of OXPHOS
same,maximal respiration rate,[4],reduced maximal respiration rate
same,c-Myc reporter GFP induction under IRE1α blockade,"[1]; Myc^GFP NK cells stimulated with IL-15, or IL-12 and IL-18, 16 hours",GFP induction was largely impeded
same,proliferation of NK cells from Myc^OE mice,[5]; inhibitor 5 μM vs DMSO,proliferated to a comparable extent as in the DMSO-treated control group
same,proliferation of NK cells from WT littermates,[5]; inhibitor 5 μM,impaired in proliferation
